3 compounds from the NIST ThermoML archive (doi:10.1021/acs.jced.9b00074) can be followed below.

The conditions of the data set: 100 kPa, Liquid; for viscosity: Falling or rolling sphere viscometry; for mass density: Vibrating tube method.

± gives the expanded uncertainty stated by the source.

For `CC12CC3CC(C1)CC(C)(C3)C2` [1,3-dimethyladamantane], the viscosity is, setting by setting: (293.15 K) 3.75 ± 0.08 mPa·s; (298.15 K) 3.34 ± 0.071 mPa·s; (303.15 K) 2.997 ± 0.064 mPa·s; (308.15 K) 2.702 ± 0.057 mPa·s; (313.15 K) 2.45 ± 0.052 mPa·s; (318.15 K) 2.231 ± 0.047 mPa·s. Besides, the viscosity (323.15 K) is 2.039 ± 0.043 mPa·s, the viscosity (328.15 K) is recorded as 1.871 ± 0.04 mPa·s and the viscosity (333.15 K) turned out to be 1.722 ± 0.037 mPa·s. The mass density (293.15 K) worked out at 901.57 ± 0.55 kg/m3; the mass density (298.15 K) was determined as 898 ± 0.54 kg/m3; the mass density (303.15 K) is on record as 894.43 ± 0.54 kg/m3; the mass density (308.15 K) is listed as 890.86 ± 0.54 kg/m3; the mass density (313.15 K) is listed as 887.29 ± 0.54 kg/m3; the mass density (318.15 K) is reported as 883.71 ± 0.54 kg/m3. The mass density is, setting by setting: (323.15 K) 880.13 ± 0.53 kg/m3; (328.15 K) 876.55 ± 0.53 kg/m3; (333.15 K) 872.96 ± 0.53 kg/m3.

With `OC1CCCC1` [cyclopentanol], the viscosity was determined as 11.72 ± 0.25 mPa·s (293.15 K); 9.6 ± 0.2 mPa·s (298.15 K); 7.891 ± 0.17 mPa·s (303.15 K); 6.564 ± 0.14 mPa·s (308.15 K); 5.509 ± 0.12 mPa·s (313.15 K); 4.657 ± 0.099 mPa·s (318.15 K). Moreover, the viscosity is 3.97 ± 0.084 mPa·s (323.15 K), 3.409 ± 0.072 mPa·s (328.15 K) and 2.945 ± 0.063 mPa·s (333.15 K). The mass density by setting is: (293.15 K) 947.04 ± 0.57 kg/m3; (298.15 K) 943.08 ± 0.57 kg/m3; (303.15 K) 939.08 ± 0.57 kg/m3; (308.15 K) 935.03 ± 0.56 kg/m3; (313.15 K) 930.92 ± 0.56 kg/m3; (318.15 K) 926.76 ± 0.56 kg/m3. Moreover, the mass density reads like this: (323.15 K) 922.53 ± 0.56 kg/m3; (328.15 K) 918.24 ± 0.55 kg/m3; (333.15 K) 913.89 ± 0.55 kg/m3.

For the compound `C1C[C@@H]2[C@H]3CC[C@H](C3)[C@@H]2C1` [exo-tetrahydrodicyclopentadiene], the viscosity amounted to 3.017 ± 0.068 mPa·s (293.15 K); 2.731 ± 0.061 mPa·s (298.15 K); 2.488 ± 0.056 mPa·s (303.15 K); 2.273 ± 0.051 mPa·s (308.15 K); 2.087 ± 0.047 mPa·s (313.15 K); 1.922 ± 0.043 mPa·s (318.15 K). The viscosity turned out to be 1.776 ± 0.04 mPa·s (323.15 K), 1.646 ± 0.037 mPa·s (328.15 K) and 1.53 ± 0.034 mPa·s (333.15 K). Further, the mass density by setting is: (293.15 K) 935.88 ± 0.7 kg/m3; (298.15 K) 932 ± 0.69 kg/m3; (303.15 K) 928.08 ± 0.69 kg/m3; (308.15 K) 924.16 ± 0.69 kg/m3; (313.15 K) 920.24 ± 0.68 kg/m3; (318.15 K) 916.31 ± 0.68 kg/m3. The mass density by setting is: (323.15 K) 912.38 ± 0.68 kg/m3; (328.15 K) 908.44 ± 0.68 kg/m3; (333.15 K) 904.5 ± 0.67 kg/m3.

As a reminder, the viscosity is the resistance of a fluid to flow. In general, mass density refers to the mass of a sample divided by its volume.
